In patent US4214091A, “Antibiotic No. 2-200 and process for producing thereof” (Chugai Seiyaku Kabushiki Kaisha, priority 1977, dated 1980):
In brackets after ≈: the same amount, converted by molar mass.

What was measured:
Experiment in all cases: MIC, GAM agar, anaerobic
Assay type in all cases: cell-based
Bacteroides fragilis V-7 = settings: V7, GAM agar, anaerobic, 37° C., 40 hours, inoculum 10^6/ML, read-out: Minimum inhibitory concentration (MIC)
Method: (§1) Minimum inhibitory concentration (MIC) for gram
(§2) Note: incubated at 37° C. for 40 hours on GAM agar medium (product
(§3) of Nippon Seiyaku) using anaerobic incubator. Inoculated with 10^6

Bacteroides fragilis V-8 = settings: V8, GAM agar, anaerobic, 37° C., 40 hours, inoculum 10^6/ML, read-out: Minimum inhibitory concentration (MIC)
Method: as §1, §2, §3

Bacteroides fragilis V-6 = settings: V6, GAM agar, anaerobic, 37° C., 40 hours, inoculum 10^6/ML, read-out: Minimum inhibitory concentration (MIC)
Method: as §1, §2, §3

[1] = system: Fusobacterium glutinosum 1006; settings: 37° C., 40 hours, inoculum 10^6/ML, read-out: Minimum inhibitory concentration (MIC)
Method: as §1, §2, §3

**Q.** What does the source list for `O=C(Cn1cnnn1)N[C@@H]1C(=O)N2C(C(=O)O)=C(CSc3nncs3)CS[C@H]12` [Ceftezole, reference compound]?
**A.** MIC (Bacteroides fragilis V-7): 25 µg/mL (≈ 56.8 µM); MIC (Bacteroides fragilis V-8): > 100 µg/mL; MIC (Bacteroides fragilis V-6): 100 µg/mL (≈ 227 µM); MIC [1]: 6.25 µg/mL (≈ 14.2 µM)
